Results as given in patent US7138361B2, “Herbicidal heterocycles” (E. I. du Pont de Nemours and Company, priority 2000, dated 2006).

Assays:
Assay type in all cases: in vivo
[1] = tested on: Surinam grass (Brachiaria decumbens); assay: Test B postemergence; settings: 13 to 15 days
Procedure, shortened: (§1)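 Greenhouse test: chemicals are formulated in a surfactant-containing non-phytotoxic solvent and applied either preemergence to planted seeds or postemergence to plants 2 to 18 cm tall. Response is rated visually versus controls after 13 to 15 days, 0 meaning no effect and 100 complete control.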

[2] = tested on: barnyardgrass (Echinochloa crus-galli); assay: Test B postemergence; settings: 13 to 15 days
Procedure, shortened: as §1

[3] = tested on: cocklebur (Xanthium strumarium); assay: Test B postemergence; settings: 13 to 15 days
Procedure, shortened: as §1

corn (Zea mays) [4] = assay: Test B postemergence; settings: 13 to 15 days
Procedure, shortened: as §1

[5] = tested on: crabgrass (Digitaria sanguinalis); assay: Test B postemergence; settings: 13 to 15 days
Procedure, shortened: as §1

[6] = tested on: giant foxtail (Setaria faberii); assay: Test B postemergence; settings: 13 to 15 days
Procedure, shortened: as §1

[7] = tested on: morning glory (Ipomoea hederacea); assay: Test B postemergence; settings: 13 to 15 days
Procedure, shortened: as §1

[8] = tested on: pigweed (Amaranthus retroflexus); assay: Test B postemergence; settings: 13 to 15 days
Procedure, shortened: as §1

[9] = tested on: velvetleaf (Abutilon theophrasti); assay: Test B postemergence; settings: 13 to 15 days
Procedure, shortened: as §1

[10] = tested on: wheat (Triticum aestivum); assay: Test B postemergence; settings: 13 to 15 days
Procedure, shortened: as §1

wild oat (Avena fatua) = assay: Test B postemergence; settings: 13 to 15 days
Procedure, shortened: as §1

Nightshade = assay: Test C preemergence
Sunflower [11] = assay: Test C preemergence
[12] = tested on: common ragweed (Ambrosia elatior); assay: Test C preemergence; settings: for Plant response rating (0 to 100), Ragweed, Common: Rate 250 g/ha, visual evaluation after 12 to 14 days
Procedure, shortened: (§2)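 Seeds are planted and treated before emergence; for the postemergence test, plants at 1- to 4-leaf stage (2–18 cm) receive the same formulation, a solvent blend containing surfactant. Plants stay in the greenhouse 12–14 days, then response is scored visually from 0 (none) to 100 (complete control).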

corn (Zea mays) [13] = assay: Test C preemergence; settings: for Plant response rating (0 to 100), Corn: Rate 250 g/ha, visual evaluation after 12 to 14 days
Procedure, shortened: as §2

[14] = tested on: goosegrass (Eleusine indica); assay: Test C preemergence; settings: for Plant response rating (0 to 100), Goosegrass: Rate 250 g/ha, visual evaluation after 12 to 14 days
Procedure, shortened: as §2

[15] = tested on: johnsongrass (Sorghum halepense); assay: Test C preemergence; settings: for Plant response rating (0 to 100), Johnsongrass: Rate 250 g/ha, visual evaluation after 12 to 14 days
Procedure, shortened: as §2

[16] = tested on: lambsquarters (Chenopodium album); assay: Test C preemergence; settings: for Plant response rating (0 to 100), Lambsquarters: Rate 250 g/ha, visual evaluation after 12 to 14 days
Procedure, shortened: as §2

[17] = tested on: morningglory (Ipomoea hederacea); assay: Test C preemergence
Procedure, shortened: as §2

[18] = tested on: velvetleaf (Abutilon theophrasti); assay: Test C preemergence; settings: for Plant response rating (0 to 100), Velvetleaf: Rate 250 g/ha, visual evaluation after 12 to 14 days
Procedure, shortened: as §2

[19] = tested on: yellow nutsedge (Cyperus esculentus); assay: Test C preemergence; settings: for Plant response rating (0 to 100), Nutsedge: Rate 250 g/ha, visual evaluation after 12 to 14 days
Procedure, shortened: as §2

Sunflower [20] = assay: Test C preemergence; settings: Rate 250 g/ha, visual evaluation after 12 to 14 days
[21] = Rate 125 g/ha, scale 0 (no effect) to 100 (complete control)
[22] = Rate 500 g/ha, scale 0 to 100, 0 is no effect, 100 is complete control
[23] = Rate 62 g/ha, scale 0 to 100, 0 no effect, 100 complete control
[24] = Rate 125 g/ha, scale 0 to 100, 0 no effect, 100 complete control
[25] = Preemergence, Rate 500 g/ha, scale 0 to 100
[26] = preemergence, Rate 125 g/ha, scale 0 to 100, 0 no effect, 100 complete control

## O=C1C(n2ccc(C3CCCCC3)n2)SCN1c1cccc(OC(F)(F)F)c1 (stereo not drawn) [Compound 50]
[1]; [21]
  Plant response rating, Surinam grass: 0
[1]; [22]
  Plant response rating, Surinam grass: 0
[2]; [21]
  Plant response rating, Barnyardgrass: 0
[2]; [22]
  Plant response rating, Barnyardgrass: 90
[3]; [21]
  Plant response rating, Cocklebur: 0
[3]; [22]
  Plant response rating, Cocklebur: 50
Corn (Zea mays) [4]; [21]
  Plant response rating, Corn: 0
Corn (Zea mays) [4]; [22]
  Plant response rating, Corn: 0
[5]; [21]
  Plant response rating, Crabgrass: 30
[5]; [22]
  Plant response rating, Crabgrass: 50
[6]; [21]
  Plant response rating, Foxtail, Giant: 0
[6]; [22]
  Plant response rating, Foxtail, Giant: 50
[7]; [21]
  Plant response rating, Morningglory: 0
[7]; [22]
  Plant response rating, Morningglory: 0
[8]; [21]
  Plant response rating, Pigweed: 0
[8]; [22]
  Plant response rating, Pigweed: 0
[9]; [21]
  Plant response rating, Velvetleaf: 0
[9]; [22]
  Plant response rating, Velvetleaf: 0
[10]; [21]
  Plant response rating, Wheat: 0
[10]; [22]
  Plant response rating, Wheat: 0
Wild oat (Avena fatua); [21]
  Plant response rating, Wild Oat: 0
Wild oat (Avena fatua); [22]
  Plant response rating, Wild Oat: 0
Nightshade; [23]
  Plant response rating, Nightshade: 0
Nightshade; [24]
  Plant response rating, Nightshade: 0
Nightshade; Rate 500 g/ha, scale 0 to 100
  Plant response rating, Nightshade: 60
Sunflower [11]; [23]
  Plant response rating, Sunflower: 20
Sunflower [11]; Rate 500 g/ha, scale 0 to 100
  Plant response rating, Sunflower: 60
[12]; [25]
  Plant response rating, Ragweed, Common: 40
[12]; [23]
  Plant response rating, Ragweed, Common: 20
[12]; preemergence
  Plant response rating (0 to 100), Ragweed, Common: 40
[12]; [26]
  Plant response rating, Ragweed, Common: 30
Corn (Zea mays) [13]; [25]
  Plant response rating, Corn: 0
Corn (Zea mays) [13]; [23]
  Plant response rating, Corn: 0
Corn (Zea mays) [13]; preemergence
  Plant response rating (0 to 100), Corn: 0
Corn (Zea mays) [13]; [26]
  Plant response rating, Corn: 0
[14]; [25]
  Plant response rating, Goosegrass: 100
[14]; [23]
  Plant response rating, Goosegrass: 80
[14]; preemergence
  Plant response rating (0 to 100), Goosegrass: 100
[14]; [26]
  Plant response rating, Goosegrass: 90
[15]; [25]
  Plant response rating, Johnsongrass: 90
[15]; [23]
  Plant response rating, Johnsongrass: 0
[15]; preemergence
  Plant response rating (0 to 100), Johnsongrass: 70
[15]; [26]
  Plant response rating, Johnsongrass: 40
[16]; [25]
  Plant response rating, Lambsquarters: 70
[16]; [23]
  Plant response rating, Lambsquarters: 20
[16]; preemergence
  Plant response rating (0 to 100), Lambsquarters: 70
[16]; [26]
  Plant response rating, Lambsquarters: 50
[17]; [25]
  Plant response rating, Morningglory: 30
[17]; [23]
  Plant response rating, Morningglory: 20
[17]; preemergence, Rate 250 g/ha, visual evaluation after 12 to 14 days
  Plant response rating (0 to 100), Morningglory: 30
[17]; [26]
  Plant response rating, Morningglory: 30
[18]; [25]
  Plant response rating, Velvetleaf: 0
[18]; [23]
  Plant response rating, Velvetleaf: 0
[18]; preemergence
  Plant response rating (0 to 100), Velvetleaf: 0
[18]; [26]
  Plant response rating, Velvetleaf: 0
[19]; [25]
  Plant response rating, Nutsedge: 70
[19]; [23]
  Plant response rating, Nutsedge: 0
[19]; preemergence
  Plant response rating (0 to 100), Nutsedge: 0
[19]; [26]
  Plant response rating, Nutsedge: 0
Sunflower [20]
  Plant response rating (0 to 100), Sunflower: 30

## O=C1C(n2ccc(C3CCCCC3)n2)OCN1c1cccc(C(F)(F)F)c1 (stereo not drawn) [Compound 51]
[1]; [21]
  Plant response rating, Surinam grass: 0
[1]; [22]
  Plant response rating, Surinam grass: 0
[2]; [21]
  Plant response rating, Barnyardgrass: 0
[2]; [22]
  Plant response rating, Barnyardgrass: 0
[3]; [21]
  Plant response rating, Cocklebur: 0
[3]; [22]
  Plant response rating, Cocklebur: 0
Corn (Zea mays) [4]; [21]
  Plant response rating, Corn: 0
Corn (Zea mays) [4]; [22]
  Plant response rating, Corn: 0
[5]; [21]
  Plant response rating, Crabgrass: 0
[5]; [22]
  Plant response rating, Crabgrass: 20
[6]; [21]
  Plant response rating, Foxtail, Giant: 0
[6]; [22]
  Plant response rating, Foxtail, Giant: 0
[7]; [21]
  Plant response rating, Morningglory: 0
[7]; [22]
  Plant response rating, Morningglory: 0
[8]; [21]
  Plant response rating, Pigweed: 0
[8]; [22]
  Plant response rating, Pigweed: 80
[9]; [21]
  Plant response rating, Velvetleaf: 0
[9]; [22]
  Plant response rating, Velvetleaf: 0
[10]; [21]
  Plant response rating, Wheat: 0
[10]; [22]
  Plant response rating, Wheat: 0
Wild oat (Avena fatua); [21]
  Plant response rating, Wild Oat: 0
Wild oat (Avena fatua); [22]
  Plant response rating, Wild Oat: 0
Nightshade; [23]
  Plant response rating, Nightshade: 0
Nightshade; [24]
  Plant response rating, Nightshade: 0
Nightshade; Rate 500 g/ha, scale 0 to 100
  Plant response rating, Nightshade: 60
Sunflower [11]; Rate 500 g/ha, scale 0 to 100
  Plant response rating, Sunflower: 30
[12]; [25]
  Plant response rating, Ragweed, Common: 0
[12]; preemergence
  Plant response rating (0 to 100), Ragweed, Common: 0
[12]; [26]
  Plant response rating, Ragweed, Common: 0
Corn (Zea mays) [13]; [25]
  Plant response rating, Corn: 0
Corn (Zea mays) [13]; [23]
  Plant response rating, Corn: 0
Corn (Zea mays) [13]; preemergence
  Plant response rating (0 to 100), Corn: 0
[14]; [25]
  Plant response rating, Goosegrass: 100
[14]; [23]
  Plant response rating, Goosegrass: 80
[14]; preemergence
  Plant response rating (0 to 100), Goosegrass: 100
[14]; [26]
  Plant response rating, Goosegrass: 90
[15]; [25]
  Plant response rating, Johnsongrass: 90
[15]; [23]
  Plant response rating, Johnsongrass: 20
[15]; preemergence
  Plant response rating (0 to 100), Johnsongrass: 60
[15]; [26]
  Plant response rating, Johnsongrass: 20
[16]; [25]
  Plant response rating, Lambsquarters: 100
[16]; [23]
  Plant response rating, Lambsquarters: 60
[16]; preemergence
  Plant response rating (0 to 100), Lambsquarters: 100
[16]; [26]
  Plant response rating, Lambsquarters: 100
[17]; [25]
  Plant response rating, Morningglory: 20
[17]; [26]
  Plant response rating, Morningglory: 0
[18]; [25]
  Plant response rating, Velvetleaf: 30
[18]; preemergence
  Plant response rating (0 to 100), Velvetleaf: 30
[18]; [26]
  Plant response rating, Velvetleaf: 0
[19]; [25]
  Plant response rating, Nutsedge: 30
[19]; [23]
  Plant response rating, Nutsedge: 20
[19]; preemergence
  Plant response rating (0 to 100), Nutsedge: 30
[19]; [26]
  Plant response rating, Nutsedge: 20
Sunflower [20]
  Plant response rating (0 to 100), Sunflower: 30
